Assays:
Experiment in all cases: TMT LC-MSMS of 11-labelled proteins
[1] = biological target: Actin, cytoplasmic 1 (ACTB) (Homo sapiens, UniProt P60709); assay type: cell-based
[2] = biological target: T1, Isoform 1 of Voltage-dependent anion-selective channel protein 2 (VDAC2) (Homo sapiens, UniProt P45880); assay type: cell-based
T1 sequence (P45880 12-294 limits assumed): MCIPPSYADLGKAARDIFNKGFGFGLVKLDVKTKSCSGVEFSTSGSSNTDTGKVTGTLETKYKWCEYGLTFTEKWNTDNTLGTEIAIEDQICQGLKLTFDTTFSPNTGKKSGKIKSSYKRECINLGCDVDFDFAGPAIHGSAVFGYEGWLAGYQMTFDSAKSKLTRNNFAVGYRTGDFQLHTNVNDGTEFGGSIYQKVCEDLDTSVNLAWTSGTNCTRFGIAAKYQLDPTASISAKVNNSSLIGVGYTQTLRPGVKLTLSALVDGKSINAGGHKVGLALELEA

[3] = biological target: Stress-70 protein, mitochondrial (HSPA9) (Homo sapiens, UniProt P38646); assay type: cell-based
[4] = tested on: immunoglobulin gamma-1 heavy chain; assay type: cell-based, Homo sapiens
Excerpt: Supplement 41467_2018_4343_MOESM4_ESM.xlsx, sheet "Exp3" | column: Abundance Ratio: (11) / (11 with PU-H71); Abundance Ratio: (11) / (DMSO); Abundances (Grouped): 11; Abundances (Grouped): 11 with PU-H71

[5] = sheet Exp1, SKBR3 cells, 11 0.5 µM 3 h vs DMSO
[6] = sheet Exp1, SKBR3 cells, 11 0.5 µM 3 h vs with PU-H71 10 µM
[7] = sheet Merged, SKBR3 cells, 11 0.5 µM 3 h vs DMSO
[8] = sheet Merged, SKBR3 cells, 11 0.5 µM 3 h vs with PU-H71 10 µM

Stress-70 protein, mitochondrial (HSPA9), sequence (P38646 47-679): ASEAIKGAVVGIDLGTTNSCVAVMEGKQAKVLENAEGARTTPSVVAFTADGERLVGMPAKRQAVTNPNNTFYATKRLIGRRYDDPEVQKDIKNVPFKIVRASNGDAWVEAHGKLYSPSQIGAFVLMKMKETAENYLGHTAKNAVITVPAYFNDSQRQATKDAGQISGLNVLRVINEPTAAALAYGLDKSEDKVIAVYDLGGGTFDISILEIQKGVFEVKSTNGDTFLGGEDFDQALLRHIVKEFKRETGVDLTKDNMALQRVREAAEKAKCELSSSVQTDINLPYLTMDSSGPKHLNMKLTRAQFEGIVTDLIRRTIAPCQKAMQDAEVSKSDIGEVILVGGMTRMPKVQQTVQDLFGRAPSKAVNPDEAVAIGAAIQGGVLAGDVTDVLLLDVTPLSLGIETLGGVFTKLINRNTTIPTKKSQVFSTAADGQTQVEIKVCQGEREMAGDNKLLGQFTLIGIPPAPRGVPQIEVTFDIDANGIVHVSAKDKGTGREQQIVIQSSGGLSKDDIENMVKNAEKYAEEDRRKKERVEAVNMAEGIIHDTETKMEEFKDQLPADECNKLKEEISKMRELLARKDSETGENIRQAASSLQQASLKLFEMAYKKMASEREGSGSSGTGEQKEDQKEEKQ

Structure (SMILES): CC(=O)Oc1ccc2c(c1)Oc1cc(OC(C)=O)ccc1C21OC(=O)c2cc(C(=O)NCCOCCOCCNC(=O)CCCC(=O)N(CC#N)S(=O)(=O)c3ccc(C(=O)NCCCn4c(Sc5cc6c(cc5I)OCO6)nc5c(N)ncnc54)cc3)ccc21 [compound 11]
- Abundance Ratio: (11) / (11 with PU-H71) ([1]; Exp3, ACTB): 0.843
- Abundance Ratio: (11) / (DMSO) ([1]; Exp3, ACTB): 2.666
- Abundances (Grouped): 11 ([1]; Exp3, ACTB): 445.7
- Abundances (Grouped): 11 with PU-H71 ([1]; Exp3, ACTB): 528.9
- Abundance Ratio: (11) / (DMSO) [1, 5]: 3.266
- Abundance Ratio: (11) / (11 with PU-H71) [1, 6]: 0.822
- Abundance Ratio: (11) / (11 with PU-H71) ([1]; sheet Exp2, ACTB): 0.825
- Abundance Ratio: (11) / (DMSO) ([1]; sheet Exp2, ACTB): 3.623
- Abundances (Grouped): 11 ([1]; sheet Exp2, ACTB): 493.5
- Abundances (Grouped): 11 with PU-H71 ([1]; sheet Exp2, ACTB): 598.3
- Abundance Ratio: (11) / (DMSO) [1, 7]: 3.272
- Abundance Ratio: (11) / (11 with PU-H71) [1, 8]: 0.843
- Abundance Ratio: (11) / (11 with PU-H71) ([2]; Exp3, VDAC2): 0.617
- Abundance Ratio: (11) / (DMSO) ([2]; Exp3, VDAC2): 3.942
- Abundances (Grouped): 11 ([2]; Exp3, VDAC2): 149
- Abundances (Grouped): 11 with PU-H71 ([2]; Exp3, VDAC2, with PU-H71): 241.6
- Abundance Ratio: (11) / (DMSO) [2, 5]: 2.647
- Abundance Ratio: (11) / (11 with PU-H71) [2, 6]: 0.676
- Abundance Ratio: (11) / (DMSO) [2, 7]: 2.786
- Abundance Ratio: (11) / (11 with PU-H71) [2, 8]: 0.688
- Abundance Ratio: (11) / (11 with PU-H71) ([3]; Exp3, HSPA9): 0.949
- Abundance Ratio: (11) / (DMSO) ([3]; Exp3, HSPA9): 2.217
- Abundances (Grouped): 11 ([3]; Exp3, HSPA9): 31.7
- Abundances (Grouped): 11 with PU-H71 ([3]; Exp3, HSPA9, with PU-H71): 33.4
- Abundance Ratio: (11) / (DMSO) [3, 7]: 2.217
- Abundance Ratio: (11) / (11 with PU-H71) [3, 8]: 0.949
- Abundance Ratio: (11) / (11 with PU-H71) ([4]; Exp3): 0.809
- Abundance Ratio: (11) / (DMSO) ([4]; Exp3): 0.806
- Abundances (Grouped): 11 ([4]; Exp3): 6402
- Abundances (Grouped): 11 with PU-H71 ([4]; Exp3, with PU-H71): 7910.4

Reference: paper PMC5951806, “Rapid labelling and covalent inhibition of intracellular native proteins using ligand-directed N-acyl-N-alkyl sulfonamide” (Nature Communications, 2018)
